Values of other authors, collected in patent US20190192552A1, “PHARMACEUTICAL COMPOSITIONS AND METHODS FOR TREATING KELOIDS, HY[…] AND WOUNDS, AND FOR PROVIDING IMPROVED SKIN CARE” (Cormedix Inc., priority 2017, published 2019).

System: Microbes
Conditions: microbes killed and resulting toxins inactivated

O=S1(=O)CCN(CN2CCS(=O)(=O)NC2)CN1 [taurolidine, 4,4′-methylene-bis(tetrahydro-1,2,4-thiadiazine)-1,1,1′,1′,-tetraoxide]
destruction time in vitro: approximately 30 minutes
